What is called IC50 is the point on the concentration scale where inhibition reaches its midpoint.

A value given as a limit tells only on which side of the number the result lay.

The results in this text go back to patent publication US20220281831A1, “FUSED-GLUTARIMIDE CRBN LIGANDS AND USES THEREOF” (Kymera Therapeutics, Inc., priority 2019, published 2022).

His-tagged CRBN-DDB1 complex, sequence (Q96SW2 whole entry): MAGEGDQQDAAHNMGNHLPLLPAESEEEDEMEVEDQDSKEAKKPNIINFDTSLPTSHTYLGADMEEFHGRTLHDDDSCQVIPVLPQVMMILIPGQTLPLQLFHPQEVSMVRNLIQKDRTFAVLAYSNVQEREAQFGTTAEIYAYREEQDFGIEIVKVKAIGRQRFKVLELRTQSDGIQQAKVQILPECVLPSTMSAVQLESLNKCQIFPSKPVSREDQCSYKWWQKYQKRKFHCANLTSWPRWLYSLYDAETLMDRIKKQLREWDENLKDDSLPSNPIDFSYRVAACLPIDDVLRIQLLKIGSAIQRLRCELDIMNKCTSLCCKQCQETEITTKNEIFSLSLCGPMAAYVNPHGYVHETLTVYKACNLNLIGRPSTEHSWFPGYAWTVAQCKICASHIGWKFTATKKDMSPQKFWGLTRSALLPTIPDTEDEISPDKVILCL
His-tagged CRBN-DDB1 complex, sequence (Q16531 whole entry partner): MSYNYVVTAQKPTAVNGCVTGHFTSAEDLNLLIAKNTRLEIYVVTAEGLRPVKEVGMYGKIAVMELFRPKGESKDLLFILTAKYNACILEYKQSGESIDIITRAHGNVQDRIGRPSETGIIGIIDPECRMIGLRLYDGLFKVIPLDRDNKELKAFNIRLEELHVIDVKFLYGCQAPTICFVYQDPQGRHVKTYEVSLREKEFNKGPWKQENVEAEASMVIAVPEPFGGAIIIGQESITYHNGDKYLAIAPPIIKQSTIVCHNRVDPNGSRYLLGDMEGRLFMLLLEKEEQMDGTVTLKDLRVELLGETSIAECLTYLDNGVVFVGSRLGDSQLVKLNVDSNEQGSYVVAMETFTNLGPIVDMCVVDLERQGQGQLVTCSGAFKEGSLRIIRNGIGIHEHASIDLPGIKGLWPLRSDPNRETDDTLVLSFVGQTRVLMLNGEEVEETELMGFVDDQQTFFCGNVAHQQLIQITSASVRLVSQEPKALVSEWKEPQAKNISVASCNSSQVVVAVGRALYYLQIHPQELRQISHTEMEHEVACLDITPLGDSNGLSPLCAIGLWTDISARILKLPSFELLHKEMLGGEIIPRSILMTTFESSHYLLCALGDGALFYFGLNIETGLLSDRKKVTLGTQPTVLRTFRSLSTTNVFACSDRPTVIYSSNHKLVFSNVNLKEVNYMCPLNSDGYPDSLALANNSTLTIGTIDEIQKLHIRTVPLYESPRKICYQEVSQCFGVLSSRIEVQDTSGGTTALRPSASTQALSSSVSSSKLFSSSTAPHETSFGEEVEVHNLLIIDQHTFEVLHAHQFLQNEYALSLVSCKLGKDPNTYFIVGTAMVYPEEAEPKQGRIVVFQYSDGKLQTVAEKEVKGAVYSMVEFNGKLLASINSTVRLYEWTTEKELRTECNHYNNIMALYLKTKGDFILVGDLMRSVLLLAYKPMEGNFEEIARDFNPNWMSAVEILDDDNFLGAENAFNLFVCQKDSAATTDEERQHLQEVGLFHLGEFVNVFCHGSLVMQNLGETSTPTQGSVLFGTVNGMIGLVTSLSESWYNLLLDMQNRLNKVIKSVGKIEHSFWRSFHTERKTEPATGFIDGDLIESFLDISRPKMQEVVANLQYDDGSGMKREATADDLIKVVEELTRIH

For this test, the target named is His-tagged CRBN-DDB1 complex (Homo sapiens, UniProt Q96SW2). Description: Time-Resolved Fluorescence Resonance Energy Transfer (TR-FRET / HTRF) CRBN binding assay, displacement of Cy5-labeled thalidomide. The conditions noted are these: His-CRBN-DDB1, Cy5-thalidomide 8 nM, 1 hour room temperature. As for the experimental part:
Time-Resolved Fluorescence Resonance Energy Transfer (TR-FRET) Assay.
Equal volumes of His-tagged CRBN-DDB1 complex (56 nM) was mixed with Eu-cryptate labeled Anti-6HIS-monoclonal antibody (50× dilution from the commercial stock solution, Vender: Cisbio, Cat. #61HI2KLA) in a final buffer containing 20 mM HEPES pH 7.0, 150 mM NaCl, 0.005% Tween-20. […] The mixture were incubated at room temperature for 1 hour. FRET signals were measured on an EnVision plate reader (Perkin Elmer) by exciting at 340 nm and recording emission at both 615 nm as no FRET control and 665 nm as the FRET signals with a 60 microsecond delay. FRET efficiency was calculated as the ratio of fluorescent signals at […]. Quantitative loss of FRET efficiency as a function of compound concentrations was fitted by a four-parameter Logistic Function using GraphPad Prism 7.0 and the IC50 values were reported for each compound.
The compound numbers correspond to the compound numbers in Table 1.
On the technique in general: Time-resolved FRET reads energy transfer from a long-lived donor to a nearby acceptor.
Molecule `O=C1NC(=O)[C@@H]2CN(Cc3ccc(F)c4ccccc34)C[C@H]12` [Compound I-313] returned an IC50 of more than 100 µM. Molecule `Cc1ccc(CN2C[C@@H]3C(=O)NC(=O)[C@@H]3C2)o1` [Compound I-314] registered an IC50 of more than 100 µM. In turn, `O=C1NC(=O)[C@@H]2CN(Cc3cccc4cccnc34)C[C@H]12` [Compound I-315] displayed an IC50 of more than 100 µM. As to `O=C1NC(=O)[C@@H]2CN(Cc3cc4ccccc4o3)C[C@H]12` [Compound I-316], the IC50 lay within 30 to 100 µM. The molecule `O=C1NC(=O)[C@@H]2CN(C(=O)c3ccc4ccccc4c3)C[C@H]12` [Compound I-317] showed an IC50 of 30 to 100 µM.

Consider `O=C1NC(=O)[C@@H]2CN(C(=O)c3cncs3)C[C@H]12` [Compound I-318], for which the IC50 was more than 100 µM. Molecule `O=C1NC(=O)[C@@H]2CN(C(=O)c3ccc4ccoc4c3)C[C@H]12` [Compound I-320] yielded an IC50 of more than 100 µM.

Consider `O=C1NC(=O)[C@@H]2CN(C(=O)c3cccs3)C[C@H]12` [Compound I-321], for which the concentration for half-maximal inhibition (IC50) is more than 100 µM. The figure for `O=C1NC(=O)[C@@H]2CN(C(=O)c3ccc(F)cc3)C[C@H]12` [Compound I-322] is more than 100 µM; for `Cc1cccc(C(=O)N2C[C@@H]3C(=O)NC(=O)[C@@H]3C2)c1` [Compound I-323] it is more than 100 µM. As to `COc1ccc(C(=O)N2C[C@@H]3C(=O)NC(=O)[C@@H]3C2)cn1` [Compound I-324], the IC50 is more than 100 µM.

With `O=C1NC(=O)[C@@H]2CN(Cc3cccc4ccccc34)C[C@H]12` [Compound I-325], the IC50 is more than 100 µM. `CC(=O)Nc1ccc2c(c1)C(=O)NC2=O` [Compound I-326]: the half-inhibitory concentration (IC50) was more than 100 µM. Take `O=C1NC(=O)[C@@H]2CNC[C@H]12` [Compound I-327]: the IC50 was more than 100 µM. For the molecule `O=C1NC(=O)[C@@H]2CN(Cc3ccccc3)C[C@H]12` [Compound I-328], the concentration for half-maximal inhibition (IC50) was more than 100 µM. The figure for `O=C1CC2(CCN(Cc3cccc4cccnc34)CC2)CC(=O)N1` [Compound I-329] is more than 100 µM; for `O=C1CC2(CCN(Cc3ccc([N+](=O)[O-])s3)CC2)CC(=O)N1` [Compound I-330] it is 30 to 100 µM. For `O=C1CC2(CCN(Cc3cccc4ccccc34)CC2)CC(=O)N1` [Compound I-331], the 50% inhibitory concentration (IC50) is more than 100 µM. For the molecule `CN(C)c1ccc(CN2CCC3(CC2)CC(=O)NC(=O)C3)cc1` [Compound I-332], the IC50 is more than 100 µM. Molecule `O=C1CC2(CCN(Cc3cc4ccccc4o3)CC2)CC(=O)N1` [Compound I-333] gave an IC50 of more than 100 µM.

Regarding `O=C1CC2(CCN(C(=O)COCc3ccccc3)CC2)CC(=O)N1` [Compound I-334], the IC50 is more than 100 µM. Consider `CCCCOc1ccc(CN2CCC3(CC2)CC(=O)NC(=O)C3)cc1` [Compound I-335], for which the IC50 is more than 100 µM.

`O=C1CC2(CCN(Cc3ccc(F)c4ccccc34)CC2)CC(=O)N1` [Compound I-336] gave an IC50 of more than 100 µM. To `O=C1CC2(CCN(Cc3ccc[nH]3)CC2)CC(=O)N1` [Compound I-337] belongs more than 100 µM. Molecule `Cc1ccc(CN2CCC3(CC2)CC(=O)NC(=O)C3)cc1` [Compound I-338] showed an IC50 of more than 100 µM.

On to `O=C1CC2(CCN(Cc3c[nH]cn3)CC2)CC(=O)N1` [Compound I-339], for which the IC50 was more than 100 µM. The figure for `Cc1cc(C(=O)N2CCC3(CC2)CC(=O)NC(=O)C3)ccn1` [Compound I-340] is more than 100 µM.

As for `O=C1CC2(CCN(C(=O)c3ccn[nH]3)CC2)CC(=O)N1` [Compound I-341], the IC50 was more than 100 µM.

The molecule `O=C1CC2(CCN(Cc3c[nH]c4ccccc34)CC2)CC(=O)N1` [Compound I-342] registered a 50% inhibitory concentration (IC50) of more than 100 µM.

For `O=C1CC2(CCN(Cc3ccc(Cl)cc3)CC2)CC(=O)N1` [Compound I-343], the IC50 is more than 100 µM. Molecule `O=C1CC2(CCN(Cc3ccc(Oc4ccccc4)cc3)CC2)CC(=O)N1` [Compound I-344] gave an IC50 of more than 100 µM. With `COc1ccc(CN2CCC3(CC2)CC(=O)NC(=O)C3)cn1` [Compound I-345], the IC50 was more than 100 µM.
